The text below walks through data of patent US10392630B2, “Plants having increased tolerance to herbicides” (BASF AGRO B.V., priority 2013, dated 2019).

Residue numbers refer to the chain shown, from its start.

What all share (assay): biochemical
Experiment [1] concerns the target T1, Amaranthus mutant PPO (AMARE) (Amaranthus tuberculatus, UniProt Q0NZW9, F420I/R128A).
T1 sequence (Q0NZW9 1-534 R128A/F420I): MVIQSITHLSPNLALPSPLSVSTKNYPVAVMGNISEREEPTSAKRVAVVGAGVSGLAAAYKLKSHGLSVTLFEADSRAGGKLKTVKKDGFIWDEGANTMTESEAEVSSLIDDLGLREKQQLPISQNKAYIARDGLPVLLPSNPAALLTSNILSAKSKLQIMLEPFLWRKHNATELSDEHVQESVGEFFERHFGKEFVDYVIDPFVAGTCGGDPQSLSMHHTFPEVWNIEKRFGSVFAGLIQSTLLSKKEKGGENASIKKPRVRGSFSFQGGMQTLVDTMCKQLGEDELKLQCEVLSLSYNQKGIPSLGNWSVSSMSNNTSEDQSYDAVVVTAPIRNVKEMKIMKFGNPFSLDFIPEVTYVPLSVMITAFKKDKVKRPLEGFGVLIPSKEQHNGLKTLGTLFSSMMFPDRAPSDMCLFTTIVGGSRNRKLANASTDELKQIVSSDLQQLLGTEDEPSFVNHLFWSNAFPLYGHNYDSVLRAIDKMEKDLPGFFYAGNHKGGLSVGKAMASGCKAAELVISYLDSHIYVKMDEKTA

Experiment [2] concerns the target T2, Amaranthus mutant PPO (AMARE) (Amaranthus tuberculatus, UniProt Q0NZW9, F420L/R128A).
T2 sequence (Q0NZW9 1-534 R128A/F420L): T1 sequence (Q0NZW9 1-534 R128A/F420I) with I420L

Experiment [3] deals with T3, Amaranthus mutant PPO (AMARE) (Amaranthus tuberculatus, UniProt Q0NZW9, F420M/R128I).
T3 sequence (Q0NZW9 1-534 R128I/F420M): T1 sequence (Q0NZW9 1-534 R128A/F420I) with A128I, I420M

The target in experiment [4] is T4, Amaranthus mutant PPO (AMARE) (Amaranthus tuberculatus, UniProt Q0NZW9, F420V/R128A).
T4 sequence (Q0NZW9 1-534 R128A/F420V): T1 sequence (Q0NZW9 1-534 R128A/F420I) with I420V

For experiment [5], the target named is T5, Amaranthus mutant PPO (AMARE) (Amaranthus tuberculatus, UniProt Q0NZW9, F420V/R128I).
T5 sequence (Q0NZW9 1-534 R128I/F420V): T1 sequence (Q0NZW9 1-534 R128A/F420I) with A128I, I420V

What is called IC50 is the concentration that inhibits the measured activity by half. On to `CC(C)N(C)S(=O)(=O)NC(=O)c1cc(-n2c(=O)cc(C(F)(F)F)n(C)c2=O)c(F)cc1Cl` [saflufenacil], for which the IC50 in experiment [1], in experiment [2], in experiment [3], in experiment [4] and in experiment [5] was more than 10000 nM throughout.
Turning to `C#CCN1C(=O)C(F)(F)Oc2cc(F)c(-n3c(=O)n(C)c(=S)n(C)c3=O)cc21` [BAS 850H], the 50% inhibitory concentration (IC50) was found to be 24.6 nM in experiment [1]; 16.2 nM in experiment [2]; 246 nM in experiment [3]; 25 nM in experiment [4]; 424 nM in experiment [5].
